In BindingDB's records for doi:10.1111/j.1747-0285.2009.00905.x (Ariad Pharmaceuticals, 2010):

Legend:
[1] = molecular target: Tyrosine-protein kinase ABL1 (Homo sapiens, UniProt P00519); assay: In Vitro Kinase Assay
[2] = molecular target: Tyrosine-protein kinase ABL1 [T315I] (Homo sapiens, UniProt P00519, T315I); assay: In Vitro Kinase Assay
[3] = molecular target: Proto-oncogene tyrosine-protein kinase Src (Homo sapiens, UniProt P12931); assay: In vitro kinase assay using Abl, Abl T315I or Src kinase.
Chain of Proto-oncogene tyrosine-protein kinase Src (P12931 whole entry, looked up): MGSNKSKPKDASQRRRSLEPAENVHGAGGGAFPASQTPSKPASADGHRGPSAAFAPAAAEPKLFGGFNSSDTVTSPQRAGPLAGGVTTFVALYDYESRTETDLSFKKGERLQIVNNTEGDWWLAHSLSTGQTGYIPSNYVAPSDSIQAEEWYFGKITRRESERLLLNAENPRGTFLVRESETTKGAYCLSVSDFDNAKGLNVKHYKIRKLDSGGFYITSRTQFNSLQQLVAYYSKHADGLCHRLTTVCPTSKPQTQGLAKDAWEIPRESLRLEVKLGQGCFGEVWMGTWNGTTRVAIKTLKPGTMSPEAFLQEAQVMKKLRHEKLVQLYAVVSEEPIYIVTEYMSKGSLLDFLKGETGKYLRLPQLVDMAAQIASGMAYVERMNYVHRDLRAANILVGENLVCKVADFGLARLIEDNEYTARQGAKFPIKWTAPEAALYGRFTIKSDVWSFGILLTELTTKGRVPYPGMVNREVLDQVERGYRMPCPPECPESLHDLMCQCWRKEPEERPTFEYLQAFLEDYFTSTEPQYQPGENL

Row | IC50 [1] [nM] | IC50 [2] [nM] | IC50 [3] [nM] | SMILES
1 | < 0.5 | > 10000 | < 0.5 | Cc1ccc2[nH]ncc2c1/C=C/n1cnc2c(Nc3ccc(P(C)(C)=O)cc3)ncnc21
2 | – | 8900 | 9.1 | Cc1cccc(C)c1/C=C/n1cnc2c(Nc3ccc(P(C)(C)=O)cc3)ncnc21 [AP24149]
